Test results: patent US12178842B2, “PCSK9 antagonist compounds” (MERCK SHARP & DOHME LLC, priority 2019, dated 2024)

Legend:
Assay type in all cases: binding
[1] = molecular target: T1, PCSK9 (Homo sapiens, UniProt Q8NBP7); assay: PCSK9 Alexa FRET Standard TR-FRET assay; details: Ki calculated from IC50 and KD of AF cyclic peptide Reagent A; 0.5 nM PCSK9, 20 nM AF cyclic peptide; read-out: Alexa FRET Stdt TR-FRET
T1 construct: biotin (biotinylated); purchased
In short: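 Ki (nM) calculated from sigmoidal-fit IC50 and the KD of an AlexaFluor-labelled cyclic peptide (20 nM final) competing with compound for biotinylated PCSK9 (0.5 nM) bound to Eu-streptavidin (1.25 nM). Incubation at least 2 h, room temperature, HEPES pH 7.4 buffer with CaCl2; falling europium counts flag false positives.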

[2] = molecular target: T1, PCSK9; assay: PCSK9 Alexa FRET Plus TR-FRET assay
In short: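 Compounds displace an AlexaFluor-labeled cyclic peptide (1920 nM solution, not final) from europium-tagged PCSK9; time-resolved FRET read after ≥2 h at room temperature. Ki derived from fitted IC50 and peptide KD, europium donor counts monitored to detect compound interference, results given in nanomolar.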

[3] = molecular target: T1, PCSK9; assay: PCSK9 Alexa FRET Ultra TR-FRET assay
In short: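 TR-FRET read after ≥2 h at room temperature between europium-PCSK9 and an AlexaFluor cyclic peptide, stated as a 1920 nM solution. Sigmoidal nonlinear regression gives IC50, and Ki in nM follows from the peptide KD; europium counts are monitored for compound interference.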

[4] = Ki calculated from IC50 and KD of AF cyclic peptide Reagent B, 0.5 nM PCSK9, 960 nM AF cyclic peptide, read-out: Alexa FRET Plus TR-FRET
[5] = Ki Ultra, calculated from IC50 and KD of AF cyclic peptide, 0.5 nM PCSK9, 960 nM AF cyclic peptide, read-out: Alexa FRET Ultra TR-FRET

T1 sequence (Q8NBP7 153-692): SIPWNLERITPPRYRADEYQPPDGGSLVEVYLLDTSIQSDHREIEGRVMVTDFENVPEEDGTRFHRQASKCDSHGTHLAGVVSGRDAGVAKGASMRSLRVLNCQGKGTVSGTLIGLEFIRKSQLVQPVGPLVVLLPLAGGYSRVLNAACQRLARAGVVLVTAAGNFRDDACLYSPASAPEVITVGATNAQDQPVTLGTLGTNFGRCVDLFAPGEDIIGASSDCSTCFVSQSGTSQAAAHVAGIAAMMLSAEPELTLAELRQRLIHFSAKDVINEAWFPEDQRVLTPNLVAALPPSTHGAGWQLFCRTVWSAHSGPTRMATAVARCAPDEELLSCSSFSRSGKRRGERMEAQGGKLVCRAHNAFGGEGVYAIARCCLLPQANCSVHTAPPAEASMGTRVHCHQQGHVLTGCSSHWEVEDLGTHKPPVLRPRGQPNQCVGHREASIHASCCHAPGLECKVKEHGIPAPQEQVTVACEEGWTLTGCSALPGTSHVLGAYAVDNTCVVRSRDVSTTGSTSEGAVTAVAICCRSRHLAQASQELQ

Row | Ki [1] [pM] | Ki [2, 4] [pM] | Ki [3, 5] [pM] | Structure (SMILES) | Ki [2] [pM] | Ki [3] [pM]
1 | < 1260 | < 6 | 4 | COc1ccc(C[C@@H]2NC(=O)[C@H]([C@@H](C)O)NC(=O)[C@@H]3[C@@H]4CCN3C(=O)[C@@H]3Cc5cn(c6ccc(F)cc56)CCCCCCN(Cc5ccc(cc5)CCNC(=O)[C@]5(C)CCCN5C2=O)C(=O)CCC(=O)N[C@@H](C)C(=O)N[C@H](CNC(=O)COCCOCCNC(=O)COCCOCCNC(=O)CCCCC[N+](C)(C)CCNC(=O)CC[C@H](NC(=O)CCCCCCCCCCCCCCCCC(=O)O)C(=O)O)C(=O)N[C@@H](Cc2cccc(c2)CNC(=O)CO4)C(=O)N3)cc1 [compound 30] | – | –
2 | < 1260 | 9 | 11 | COc1ccc(C[C@@H]2NC(=O)[C@H]([C@@H](C)O)NC(=O)[C@@H]3[C@@H]4CCN3C(=O)[C@@H]3Cc5cn(c6ccc(F)cc56)CCCCCCN(Cc5ccc(cc5)CCNC(=O)[C@]5(C)CCCN5C2=O)C(=O)CCC(=O)N[C@@H](C)C(=O)N[C@H](CNC(=O)COCCOCCNC(=O)CCOCCOCC[N+](C)(C)CCNC(=O)COCCOCCNC(=O)COCCOCCNC(=O)CC[C@H](NC(=O)CCCCCCCCCCCCCCCCC(=O)O)C(=O)O)C(=O)N[C@@H](Cc2cccc(c2)CNC(=O)CO4)C(=O)N3)cc1 [compound 32] | – | –
3 | < 1260 | 14 | 16 | COc1ccc(C[C@@H]2NC(=O)[C@H]([C@@H](C)O)NC(=O)[C@@H]3[C@@H]4CCN3C(=O)[C@@H]3Cc5cn(c6ccc(F)cc56)CCCCCCN(Cc5ccc(cc5)CCNC(=O)[C@]5(C)CCCN5C2=O)C(=O)CCC(=O)N[C@@H](C)C(=O)N[C@H](CNC(=O)CC[C@H](NC(=O)CCCCC[N+](C)(C)CCNC(=O)COCCOCCNC(=O)COCCOCCNC(=O)CC[C@H](NC(=O)CCCCCCCCCCCCCCCCC(=O)O)C(=O)O)C(=O)O)C(=O)N[C@@H](Cc2cccc(c2)CNC(=O)CO4)C(=O)N3)cc1 [compound 33] | – | –
4 | < 1260 | < 6 | 6 | COc1ccc(C[C@@H]2NC(=O)[C@H]([C@@H](C)O)NC(=O)[C@@H]3[C@@H]4CCN3C(=O)[C@@H]3Cc5cn(c6ccc(F)cc56)CCCCCCN(Cc5ccc(cc5)CCNC(=O)[C@]5(C)CCCN5C2=O)C(=O)CCC(=O)N[C@@H](C)C(=O)N[C@H](CNC(=O)COCCOCCNC(=O)COCCOCCNC(=O)CC[C@H](NC(=O)CC[C@H](NC(=O)CCOCCOCC[N+](C)(C)CCNC(=O)CCCCCCCCCCCCCCC(=O)O)C(=O)O)C(=O)O)C(=O)N[C@@H](Cc2cccc(c2)CNC(=O)CO4)C(=O)N3)cc1 [compound 37] | – | –
5 | < 1260 | < 6 | 2 | COc1ccc(C[C@@H]2NC(=O)[C@H]([C@@H](C)O)NC(=O)C3C4CCN3C(=O)[C@@H]3Cc5cn(c6ccc(F)cc56)CCCCCCN(Cc5ccc(cc5)CCNC(=O)[C@]5(C)CCCN5C2=O)C(=O)CCC(=O)N[C@@H](C)C(=O)N[C@H](CNC(=O)CCOCCOCC[N+](C)(C)CCNC(=O)CCOCCOCC[N+](C)(C)CCNC(=O)COCCOCCNC(=O)COCCOCCNC(=O)CCCCCCCCCCCCCCC(=O)O)C(=O)N[C@@H](Cc2cccc(c2)CNC(=O)CO4)C(=O)N3)cc1 [compound 43] | – | –
6 | < 1260 | < 6 | 2 | COc1ccc(C[C@@H]2NC(=O)[C@H]([C@@H](C)O)NC(=O)[C@@H]3[C@@H]4CCN3C(=O)[C@@H]3Cc5cn(c6ccc(F)cc56)CCCCCCN(Cc5ccc(cc5)CCNC(=O)[C@]5(C)CCCN5C2=O)C(=O)CCC(=O)N[C@@H](C)C(=O)N[C@H](CNC(=O)COCCOCC[N+](C)(C)CCOCCNC(=O)COCCOCCNC(=O)COCCOCCNC(=O)CC[C@H](NC(=O)CCCCCCCCCCCCCCC(=O)O)C(=O)O)C(=O)N[C@@H](Cc2cccc(c2)CNC(=O)CO4)C(=O)N3)cc1 [compound 45] | – | –

Row | Structure (SMILES) | Ki [1] [pM] | Ki [2, 4] [pM] | Ki [3, 5] [pM] | Ki [2] [pM] | Ki [3] [pM]
7 | COc1ccc(C[C@@H]2NC(=O)[C@H]([C@@H](C)O)NC(=O)[C@@H]3[C@@H]4CCN3C(=O)[C@@H]3Cc5cn(c6ccc(F)cc56)CCCCCCN(Cc5ccc(cc5)CCNC(=O)[C@]5(C)CCCN5C2=O)C(=O)CCC(=O)N[C@@H](C)C(=O)N[C@H](CNC(=O)CCCCC[N+](C)(C)CCNC(=O)COCCOCCNC(=O)CCCCCCCCCCCCCCCCC(=O)O)C(=O)N[C@@H](Cc2cccc(c2)CNC(=O)CO4)C(=O)N3)cc1 [Example 1] | < 1260 | – | – | < 6 | 7
8 | COc1ccc(C[C@@H]2NC(=O)[C@H]([C@@H](C)O)NC(=O)[C@@H]3[C@@H]4CCN3C(=O)[C@@H]3Cc5cn(c6ccc(F)cc56)CCCCCCN(Cc5ccc(cc5)CCNC(=O)[C@]5(C)CCCN5C2=O)C(=O)CCC(=O)N[C@@H](C)C(=O)N[C@H](CNC(=O)CCCCC[N+](C)(C)CCNC(=O)COCCOCCNC(=O)COCCOCCNC(=O)CC[C@H](NC(=O)CCCCCCCCCCCCCCCCC(=O)O)C(=O)O)C(=O)N[C@@H](Cc2cccc(c2)CNC(=O)CO4)C(=O)N3)cc1 [Example 2] | < 1260 | – | – | 14 | 6
9 | COc1ccc(C[C@@H]2NC(=O)[C@H]([C@@H](C)O)NC(=O)[C@@H]3[C@@H]4CCN3C(=O)[C@@H]3Cc5cn(c6ccc(F)cc56)CCCCCCN(Cc5ccc(cc5)CCNC(=O)[C@]5(C)CCCN5C2=O)C(=O)CCC(=O)N[C@@H](C)C(=O)N[C@H](CNC(=O)CCCCC[N+](C)(C)CCNC(=O)COCCOCCNC(=O)COCCOCCNC(=O)CC[C@H](NC(=O)CCCCCCCCCCCCCCC(=O)O)C(=O)O)C(=O)N[C@@H](Cc2cccc(c2)CNC(=O)CO4)C(=O)N3)cc1 [Example 3] | < 1260 | – | – | < 6 | 5
10 | COc1ccc(C[C@@H]2NC(=O)[C@H]([C@@H](C)O)NC(=O)[C@@H]3[C@@H]4CCN3C(=O)[C@@H]3Cc5cn(c6ccc(F)cc56)CCCCCCN(Cc5ccc(cc5)CCNC(=O)[C@]5(C)CCCN5C2=O)C(=O)CCC(=O)N[C@@H](C)C(=O)N[C@H](CNC(=O)CCOCCOCC[N+](C)(C)CCNC(=O)COCCOCCNC(=O)COCCOCCNC(=O)CC[C@H](NC(=O)CCCCCCCCCCCCCCC(=O)O)C(=O)O)C(=O)N[C@@H](Cc2cccc(c2)CNC(=O)CO4)C(=O)N3)cc1 [Example 4] | < 1260 | – | – | < 6 | 3
11 | COc1ccc(C[C@@H]2NC(=O)[C@H]([C@@H](C)O)NC(=O)[C@@H]3[C@@H]4CCN3C(=O)[C@@H]3Cc5cn(c6ccc(F)cc56)C/C=C/CCCN(Cc5ccc(cc5)CCNC(=O)[C@]5(C)CCCN5C2=O)C(=O)CCC(=O)N[C@@H](C)C(=O)N[C@H](CNC(=O)CCOCCOCC[N+](C)(C)CCNC(=O)COCCOCCNC(=O)COCCOCCNC(=O)CC[C@H](NC(=O)CCCCCCCCCCCCCCC(=O)O)C(=O)O)C(=O)N[C@@H](Cc2cccc(c2)CNC(=O)CO4)C(=O)N3)cc1 [compound 46] | < 1260 | – | – | < 6 | 1
